Data from patent US11779544B1, “Antithrombotic nanoparticles and methods for treating necrotizing enterocolitis” (University of South Florida, priority 2018, dated 2023).
Counter-ions that a name gives are not always drawn.

Columns and labels:
[1] = system: plasma thrombin activity; experiment: Plasma thrombin activity in pups pre-treated with PCI-27483 before intestinal injury; type: in vivo, mice; conditions: pre-treatment with PCI-27483
Source text: FIGS. 5A-5F. Resident intestinal macrophages release tissue factor to activate thrombin during neonatal intestinal injury. FIG. 5a. Scatterplots (means±SEM) show tissue factor (TF) concentrations in plasma and intestinal tissue at serial time points during neonatal intestinal injury, measured by ELISA. N=6 mice/group; Kruskal Wallis H test with Dunn's post-test for group comparisons, * P<0.05, ** P<0.01 vs. control; FIG. 5b. Plasma thrombin activity in mouse pups with intestinal injury vs. mouse pups first treated with PCI-27483, which inhibits the tissue factor-factor VII extrinsic pathway tenase complex. N=4 mice/group; Kruskal Wallis H test with Dunn's post-test for group comparisons, ***P<0.001 vs. control, ##P<0.01 vs. control treated with PCI-27483; FIG. 5c. Representative fluorescence photomicrographs show immunoreactivity for TF (green) in F4/80^+ (red) resident macrophages in control ileum and colon. […] FIG. 5d Scatter plots on right summarize the fluorescence intensity for TF in control intestinal epithelial cells (IECs), control macrophages, injury IECs, and injury macrophages (top) and in control colonic epithelial cells (CECs), control macrophages, injury CECs, and injury macrophages. […]
To investigate the mechanisms for thrombin activation, tissue factor (TF) concentrations were evaluated during NEC-like intestinal injury. […]

[2] = cited from earlier work
[3] = in vivo; cited from earlier work
[4] = system: P10 platelets; experiment: Mixing experiment: dense granule discharge (mepacrine release) of control platelets resuspended in intestinal injury plasma; type: cell-based, mice; conditions: mepacrine fluorescence released into supernatant; intestinal injury plasma at 3 h with added inhibitor
Protocol: FIGS. 12A and 12B. (A) Scatter bar diagrams (means±SEM) show mepacrine fluorescence signal released from control P10 platelets into the supernatant, following resuspension in plasma from pups in (1) control group; (2) intestinal injury at 3 h; and (3) intestinal injury at 3 h with added bivalirudin, a synthetic peptide inhibitor of thrombin. N=6 mice/group; (B) mepacrine fluorescence released from control platelets following resuspension in plasma from (1) control group (N=8 mice); (2) intestinal injury at 3 h (N=12 mice); and (3) intestinal injury at 3 h with added D-phenylalanyl-prolyl-arginyl chloromethyl ketone (PPACK), a different thrombin inhibitor (N=11 mice). Kruskal Wallis H test with Dunn's post-test for group comparisons; * P<0.05, ** P<0.01 vs. control; #P<0.05, ###P<0.001 vs. intestinal injury plasma.
(§1) Neonatal platelets can be hyporesponsive under specific conditions, [Mull M M, Hathaway W E. Altered platelet function in newborns. Pediatr Res. 1970; 4(3):229-237] and therefore, the ability of neonatal murine platelets to respond to thrombin was checked. Treatment of mepacrine-stained P10 platelets with recombinant thrombin ([…]) caused dense granule discharge within 15 min (FIG. 11). […]
(§2) Dense granules were stained with mepacrine (Quinacrine dihydrochloride; Sigma). […] Fluorescence was measured at 436/525 nm.

[5] = system: P10 platelets; experiment: Duration of bivalirudin inhibition of thrombin-mediated dense granule discharge after point-exposure and wash; type: cell-based, mice; conditions: platelets treated with bivalirudin in vitro and washed; thrombin 25 ng/mL
Protocol: FIG. 13. Line diagrams (means±SEM) show mepacrine fluorescence signal released over time from control (blue) and bivalirudin-treated and washed (orange) P10 platelets into the supernatant, following treatment with thrombin (25 ng/mL). Data represent 3 separate experiments; each experiment included platelets pooled from 3 pups; Kruskal Wallis H test with Dunn's post-test for group comparisons; * P<0.05 vs. control.
In vivo assessment was performed for thrombin-mediated platelet activation during neonatal intestinal injury. […] In the next in vivo study, wild-type neonatal mice 3 h into intestinal injury were transfused with platelets expressing enhanced yellow fluorescence protein (YFP; platelets harvested from progeny of PF4-cre mice (C57BL/6-Tg(Cxcl4-cre)Q3Rsko/J)×R26-stop-YFP mutant mice (B6.129X1-Gt(ROSA)26Sortm1(EYFP)Cos/J). In some mice, YFP^+ platelets were pre-treated with bivalirudin prior to transfusion, and CD31 expression was then measured for both the endogenous and the bivalirudin-treated transfused YFP^+ platelets in blood samples drawn 3 h after the transfusion. Bivalirudin-pretreatment curtailed CD31 expression on YFP^+ platelets (FIG. 3c), providing further evidence for a role of thrombin as the primary platelet activator in NEC-like neonatal intestinal injury. […]

[6] = system: YFP+ platelets; experiment: Transfusion of bivalirudin-pretreated YFP+ platelets into pups with intestinal injury, CD31 expression; type: in vivo, mice; conditions: YFP+ platelets pre-treated with bivalirudin prior to transfusion, blood drawn 3 h after transfusion
Protocol: (§3) FIG. 3b. Plasma from mouse pups with intestinal injury activates platelets via thrombin. […] N=3 mice/group; 2 runs; Kruskal Wallis H test with Dunn's post-test for group comparisons, ** P<0.01 vs. control, #P<0.05 vs. intestinal injury; FIG. 3c Thrombin activates platelets during murine neonatal intestinal injury. YFP^+ platelets were transfused into WT C57BL/6 pups with intestinal injury, and blood samples were drawn after 3 h. […] Treatment of YFP^+ platelets with bivalirudin prior to transfusion blocked activation-related increase in CD31 expression (lower right). […] N=4 mice/group; Kruskal Wallis H test with Dunn's post-test for group comparisons, * P<0.05 vs. untreated YFP^+ platelets, #P<0.05 vs. endogenous platelets in the bivalirudin-treated YFP^+ platelet transfusion group. […]
(§4) Platelet activation markers were measured by flow cytometry, using the following fluorescence-labeled antibodies: JON/A (Emfret); anti-CD62P, anti-CD41/GPIIb, CD61/integrin αvβ3, CD31/PECAM-1 (BioLegend, San Diego, Calif.). Platelets were evaluated by size-gate threshold adjustment with microbeads of known diameter (100 nm to 1.3 μm; Spherotech, Lake Forest, Ill.) in forward and side-scatter. […] Platelet aggregation was measured by impedance method and ATP release by luminometry using a 2-channel Chrono-Log lumi-aggregometer (model 700, Chrono-Log, Havertown, Pa., USA) per established methods. […]

[7] = system: platelets from control pups; experiment: CD31 expression on control platelets resuspended in intestinal injury plasma; type: cell-based, mice; conditions: bivalirudin 200 ng/mL; platelets resuspended ×45 min
Protocol: as §3, §4

[8] = system: P10 platelets; experiment: Recombinant thrombin treatment of mepacrine-stained platelets, dense granule discharge; type: cell-based, mice; conditions: recombinant thrombin (25 μg/mL)
Protocol: FIGS. 11A and 11B. Scatter bar diagrams (means±SEM) show (A) mepacrine fluorescence signal in platelets isolated from control P10 mice at serial time-points after treatment with recombinant thrombin (25 ng/mL). Fluorescence signal normalized and depicted as percent of control. Data represent 3 separate experiments; each experiment included platelets pooled from 3 pups; (B) mepacrine fluorescence signal released into the supernatant after thrombin stimulation. Kruskal Wallis H test with Dunn's post-test for group comparisons; ** P<0.01,*** P<0.001 vs. control.
as §1, §2

N=C(N)c1ccc2nc(-c3cc(CC(=O)N[C@@H](CC(=O)O)C(=O)O)cc(-c4cc(S(N)(=O)=O)ccc4O)c3O)[nH]c2c1 [PCI-27483]
rise in plasma thrombin activity during intestinal injury [1]: blocked the rise

N=C(N)NCCCC(NC(=O)C1CCCN1C(=O)[C@H](N)Cc1ccccc1)C(=O)CCl (stereo partly drawn) [PPACK, D-phenylalanyl-N-[(1S)-4-[(aminoiminomethyl)amino]-1-(2-chloroacetyl)butyl]-L-prolinamide, trifluoroacetate salt]
LD50 ([2]; in vivo): greater than 50 mg/kg
long-term toxicity ([2]; mice): no long-term toxicity
distribution half-life [3]: 7 min
elimination half-life [3]: 2.9 min

bivalirudin: synthetic peptide of 20 amino acids (SEQ ID NO: 1); specific and reversible direct thrombin inhibitor
platelet dense granule discharge caused by plasma from mice with intestinal injury [4]: blocked
time bivalirudin-treated platelets remained refractory to thrombin [5]: ≥ 120 min
CD31 expression on transfused YFP+ platelets [6]: blocked
CD31 expression on transfused YFP+ platelets ([6]; listed as Bivalirudin): curtailed
effects of intestinal injury plasma on platelet CD31 expression [7]: blocked

recombinant thrombin: Recombinant mouse thrombin (Molecular Innovations), used as platelet activator
time to dense granule discharge [8]: ≤ 15 min
